According to ChEMBL document CHEMBL4613212, “Insights of synthetic analogues of anti-leprosy agents” (Bioorg Med Chem, 2019):
In brackets after ≈: the same amount, converted by molar mass.

What was measured:
Assay type in all cases: functional
[1] = system: Mycobacterium tuberculosis; test: Antitubercular activity against Mycobacterium tuberculosis H37Rv ATCC 27294 assessed as growth inhibition at 6.25 ug/ml by microplate alamar blue assay relative to control
[2] = system: Mycobacterium tuberculosis; test: Antitubercular activity against Mycobacterium tuberculosis H37Rv ATCC 27294 assessed as inhibition of [3H]-thymidine incorporation relative to control
Escherichia coli [3] = test: Antimicrobial activity against Escherichia coli ATCC 35218 by broth microdilution assay
Klebsiella pneumoniae = test: Antimicrobial activity against Klebsiella pneumoniae 700603 by broth microdilution assay
[4] = system: Mycobacterium tuberculosis; test: Antitubercular activity against Mycobacterium tuberculosis H37Rv ATCC 27294 incubated for 7 days by microplate alamar blue assay; conditions: H37Rv ATCC 27294, 168 h
Staphylococcus aureus = test: Antimicrobial activity against Staphylococcus aureus ATCC 25923 by broth microdilution assay
Enterococcus faecalis [5] = test: Antimicrobial activity against Enterococcus faecalis ATCC 51922 by broth microdilution assay
Pseudomonas aeruginosa = test: Antimicrobial activity against Pseudomonas aeruginosa ATCC 27853 by broth microdilution assay
Enterococcus faecalis [6] = test: Antimicrobial activity against Enterococcus faecalis ATCC 29212 by broth microdilution assay
Escherichia coli [7] = test: Antimicrobial activity against Escherichia coli ATCC 25922 by broth microdilution assay
Listeria monocytogenes = test: Antimicrobial activity against Listeria monocytogenes ATCC 1911 by broth microdilution assay
Mycobacterium leprae = test: Anti-leprotic activity against Mycobacterium leprae assessed as maximum bactericidal dilutions
[8] = system: Mycobacterium tuberculosis; test: Antitubercular activity against Mycobacterium tuberculosis infected in mouse assessed as reduction in microbial load at 2 to 3 mg ip, pretreated for 48 to 72 hrs followed by microbial infection and subsequent compound dosing at 48 to 72 hrs post-infection measured 24 to 32 days post-infection relative to control; design: scale not given: the % may be the effect or the level left

Compound: c1csc(-c2[nH]cnc3ncnc2-3)c1
- inhibition at 6.25 µg/mL [1]: 7%
- inhibition (INH) [2]: <10%

Compound: FC(F)(F)c1ccc(NC(=S)N/N=C/c2ccc(Cl)cc2)cc1
- MIC (Escherichia coli [3]): 400 µg/mL (≈ 1120 µM)
- MIC (Klebsiella pneumoniae): 400 µg/mL (≈ 1120 µM)
- MIC [4]: 400 µg/mL (≈ 1120 µM)
- MIC (Staphylococcus aureus): 400 µg/mL (≈ 1120 µM)
- MIC (Enterococcus faecalis [5]): 400 µg/mL (≈ 1120 µM)
- MIC (Pseudomonas aeruginosa): 400 µg/mL (≈ 1120 µM)
- MIC (Enterococcus faecalis [6]): 400 µg/mL (≈ 1120 µM)
- MIC (Escherichia coli [7]): 400 µg/mL (≈ 1120 µM)
- MIC (Listeria monocytogenes): 800 µg/mL (≈ 2240 µM)

Compound: c1coc(-c2ncnc3c2ncn3C2CCOCC2)c1
- inhibition at 6.25 µg/mL [1]: 0%
- inhibition (INH) [2]: 15%

Compound: CCCCCCCCCC(C(=O)O)C1CCCC1 (stereo unspecified)
- fold change (FC) (Mycobacterium leprae): 111

Compound: N#Cc1ccc(/C=N/NC(=S)Nc2ccc(C(F)(F)F)cc2)cc1
- MIC (Escherichia coli [3]): 400 µg/mL (≈ 1150 µM)
- MIC (Klebsiella pneumoniae): 400 µg/mL (≈ 1150 µM)
- MIC [4]: 200 µg/mL (≈ 574 µM)
- MIC (Staphylococcus aureus): 400 µg/mL (≈ 1150 µM)
- MIC (Enterococcus faecalis [5]): 400 µg/mL (≈ 1150 µM)
- MIC (Pseudomonas aeruginosa): 400 µg/mL (≈ 1150 µM)
- MIC (Enterococcus faecalis [6]): 200 µg/mL (≈ 574 µM)
- MIC (Escherichia coli [7]): 400 µg/mL (≈ 1150 µM)
- MIC (Listeria monocytogenes): 400 µg/mL (≈ 1150 µM)

Compound: COc1ccc(/C=N/NC(=S)Nc2ccc(C(F)(F)F)cc2)cc1
- MIC (Escherichia coli [3]): 800 µg/mL (≈ 2260 µM)
- MIC (Klebsiella pneumoniae): 400 µg/mL (≈ 1130 µM)
- MIC [4]: 200 µg/mL (≈ 566 µM)
- MIC (Staphylococcus aureus): 400 µg/mL (≈ 1130 µM)
- MIC (Enterococcus faecalis [5]): 400 µg/mL (≈ 1130 µM)
- MIC (Pseudomonas aeruginosa): 400 µg/mL (≈ 1130 µM)
- MIC (Enterococcus faecalis [6]): 400 µg/mL (≈ 1130 µM)
- MIC (Escherichia coli [7]): 400 µg/mL (≈ 1130 µM)
- MIC (Listeria monocytogenes): 800 µg/mL (≈ 2260 µM)

Compound: Oc1ccc(/C=N/NC(=S)Nc2ccc(C(F)(F)F)cc2)cc1
- MIC (Escherichia coli [3]): 400 µg/mL (≈ 1180 µM)
- MIC (Klebsiella pneumoniae): 400 µg/mL (≈ 1180 µM)
- MIC [4]: 400 µg/mL (≈ 1180 µM)
- MIC (Staphylococcus aureus): 400 µg/mL (≈ 1180 µM)
- MIC (Enterococcus faecalis [5]): 400 µg/mL (≈ 1180 µM)
- MIC (Pseudomonas aeruginosa): 400 µg/mL (≈ 1180 µM)
- MIC (Enterococcus faecalis [6]): 400 µg/mL (≈ 1180 µM)
- MIC (Escherichia coli [7]): 400 µg/mL (≈ 1180 µM)
- MIC (Listeria monocytogenes): 400 µg/mL (≈ 1180 µM)

Compound: CCCCCCCCCCC(C(=O)O)C1C=CCC1 (stereo unspecified)
- fold change (FC) (Mycobacterium leprae): 167

Compound: OCCOCCOCCOCCOCCOCCOc1c2cc(-c3ccccc3)cc1Cc1cc(-c3ccccc3)cc(c1OCCOCCOCCOCCOCCOCCO)Cc1cc(-c3ccccc3)cc(c1OCCOCCOCCOCCOCCOCCO)Cc1cc(-c3ccccc3)cc(c1OCCOCCOCCOCCOCCOCCO)Cc1cc(-c3ccccc3)cc(c1OCCOCCOCCOCCOCCOCCO)Cc1cc(-c3ccccc3)cc(c1OCCOCCOCCOCCOCCOCCO)Cc1cc(-c3ccccc3)cc(c1OCCOCCOCCOCCOCCOCCO)C2
- Activity [8]: 20 - 50%

Compound: CCCCCCCCCC(C(=O)O)C1CCCCC1 (stereo unspecified)
- fold change (FC) (Mycobacterium leprae): 190

Compound: CC(C)(C)c1cc2c(O)c(c1)Cc1cc(C(C)(C)C)cc(c1O)Cc1cc(C(C)(C)C)cc(c1O)Cc1cc(C(C)(C)C)cc(c1O)Cc1cc(C(C)(C)C)cc(c1O)Cc1cc(C(C)(C)C)cc(c1O)Cc1cc(C(C)(C)C)cc(c1O)Cc1cc(C(C)(C)C)cc(c1O)C2
- Activity [8]: 20 - 50%

Compound: OCCOCCOCCOCCOCCOCCOCCOCCOCCOCCOCCOCCOc1c2cc(-c3ccccc3)cc1Cc1cc(-c3ccccc3)cc(c1OCCOCCOCCOCCOCCOCCOCCOCCOCCOCCOCCOCCO)Cc1cc(-c3ccccc3)cc(c1OCCOCCOCCOCCOCCOCCOCCOCCOCCOCCOCCOCCO)Cc1cc(-c3ccccc3)cc(c1OCCOCCOCCOCCOCCOCCOCCOCCOCCOCCOCCOCCO)Cc1cc(-c3ccccc3)cc(c1OCCOCCOCCOCCOCCOCCOCCOCCOCCOCCOCCOCCO)Cc1cc(-c3ccccc3)cc(c1OCCOCCOCCOCCOCCOCCOCCOCCOCCOCCOCCOCCO)Cc1cc(-c3ccccc3)cc(c1OCCOCCOCCOCCOCCOCCOCCOCCOCCOCCOCCOCCO)C2
- Activity [8]: 80 - 100%

Compound: Clc1nc(-c2ccco2)c2ncn(C3CCOCC3)c2n1
- inhibition at 6.25 µg/mL [1]: 6%
- inhibition (INH) [2]: 36%

Compound: CCCCCCCC(CCC1CCCCC1)C(=O)O (stereo unspecified)
- fold change (FC) (Mycobacterium leprae): 160

Compound: c1ccc(-c2ncnc3c2ncn3C2CCOCC2)cc1
- inhibition at 6.25 µg/mL [1]: 3%
- inhibition (INH) [2]: <10%

Compound: CC(C)(C)c1cc2c(OCCOCCOCCOCCOCCOCCO)c(c1)Cc1cc(C(C)(C)C)cc(c1OCCOCCOCCOCCOCCOCCO)Cc1cc(C(C)(C)C)cc(c1OCCOCCOCCOCCOCCOCCO)Cc1cc(C(C)(C)C)cc(c1OCCOCCOCCOCCOCCOCCO)Cc1cc(C(C)(C)C)cc(c1OCCOCCOCCOCCOCCOCCO)Cc1cc(C(C)(C)C)cc(c1OCCOCCOCCOCCOCCOCCO)C2
- Activity [8]: 80 - 100%

Compound: c1coc(-c2ncnc3c2ncn3CC2CCCCC2)c1
- inhibition at 6.25 µg/mL [1]: 22%
- inhibition (INH) [2]: 60%

Compound: CC(C)(C)c1cc2c(OCCOCCOCCOCCOCCOCCO)c(c1)Cc1cc(C(C)(C)C)cc(c1OCCOCCOCCOCCOCCOCCO)Cc1cc(C(C)(C)C)cc(c1OCCOCCOCCOCCOCCOCCO)Cc1cc(C(C)(C)C)cc(c1OCCOCCOCCOCCOCCOCCO)Cc1cc(C(C)(C)C)cc(c1OCCOCCOCCOCCOCCOCCO)Cc1cc(C(C)(C)C)cc(c1OCCOCCOCCOCCOCCOCCO)Cc1cc(C(C)(C)C)cc(c1OCCOCCOCCOCCOCCOCCO)Cc1cc(C(C)(C)C)cc(c1OCCOCCOCCOCCOCCOCCO)C2
- Activity [8]: 80 - 100%

Compound: C=CCn1cnc2c(-c3ccco3)ncnc21
- inhibition at 6.25 µg/mL [1]: 7%
- inhibition (INH) [2]: 11%

Compound: c1csc(-c2ncnc3c2ncn3C2CCOCC2)c1
- inhibition at 6.25 µg/mL [1]: 0%
- inhibition (INH) [2]: 23%

Compound: COCCOCCOCCOc1c2cc(C(C)(C)C)cc1Cc1cc(C(C)(C)C)cc(c1OCCOCCOCCOC)Cc1cc(C(C)(C)C)cc(c1OCCOCCOCCOC)Cc1cc(C(C)(C)C)cc(c1OCCOCCOCCOC)Cc1cc(C(C)(C)C)cc(c1OCCOCCOCCOC)Cc1cc(C(C)(C)C)cc(c1OCCOCCOCCOC)Cc1cc(C(C)(C)C)cc(c1OCCOCCOCCOC)Cc1cc(C(C)(C)C)cc(c1OCCOCCOCCOC)C2
- Activity [8]: 80 - 100%

Compound: Clc1nc(-c2cccs2)c2ncn(C3CCOCC3)c2n1
- inhibition at 6.25 µg/mL [1]: 7%
- inhibition (INH) [2]: 61%

Compound: FC(F)(F)c1ccc(NC(=S)N/N=C/c2ccccc2)cc1
- MIC (Escherichia coli [3]): 400 µg/mL (≈ 1240 µM)
- MIC (Klebsiella pneumoniae): 400 µg/mL (≈ 1240 µM)
- MIC [4]: 200 µg/mL (≈ 619 µM)
- MIC (Staphylococcus aureus): 400 µg/mL (≈ 1240 µM)
- MIC (Enterococcus faecalis [5]): 400 µg/mL (≈ 1240 µM)
- MIC (Pseudomonas aeruginosa): 400 µg/mL (≈ 1240 µM)
- MIC (Enterococcus faecalis [6]): 200 µg/mL (≈ 619 µM)
- MIC (Escherichia coli [7]): 400 µg/mL (≈ 1240 µM)
- MIC (Listeria monocytogenes): 400 µg/mL (≈ 1240 µM)

Compound: CN(C)c1ccc(/C=N/NC(=S)Nc2ccc(C(F)(F)F)cc2)cc1
- MIC (Escherichia coli [3]): 400 µg/mL (≈ 1090 µM)
- MIC (Klebsiella pneumoniae): 400 µg/mL (≈ 1090 µM)
- MIC [4]: 200 µg/mL (≈ 546 µM)
- MIC (Staphylococcus aureus): 400 µg/mL (≈ 1090 µM)
- MIC (Enterococcus faecalis [5]): 400 µg/mL (≈ 1090 µM)
- MIC (Pseudomonas aeruginosa): 400 µg/mL (≈ 1090 µM)
- MIC (Enterococcus faecalis [6]): 400 µg/mL (≈ 1090 µM)
- MIC (Escherichia coli [7]): 400 µg/mL (≈ 1090 µM)
- MIC (Listeria monocytogenes): 400 µg/mL (≈ 1090 µM)

Compound: CC(C)(C)c1cc2c(O)c(c1)Cc1cc(C(C)(C)C)cc(c1OCCOCCOCCOCCOCCOCCO)Cc1cc(C(C)(C)C)cc(c1O)Cc1cc(C(C)(C)C)cc(c1OCCOCCOCCOCCOCCOCCO)Cc1cc(C(C)(C)C)cc(c1O)Cc1cc(C(C)(C)C)cc(c1OCCOCCOCCOCCOCCOCCO)C2
- Activity [8]: 20 - 50%
